One assay concerns the target T1, Maxi-K α1/β3 (Homo sapiens, UniProt Q12791).
T1 construct: expressed in transfected cells; host or cells: HEK293
The experiment in a line: Tl+-flux selectivity panel in HEK-293 cells: Maxi-K α1/β3. The conditions noted are these: HEK293, 10 µM test compound, relative to control paxilline, read-out: Percent Inhibition ± SEM. The format is cell-based. On the procedure: (§1) With a handful of analogs that offered improved SLACK potency relative to hit compound 8, we next proceeded to investigate the ancillary pharmacology of such compounds, both with respect to other Slo family members as well as versus a spectrum of diverse ion channels (Table 5). Thus, we screened four compounds (32, 48, 70, and 71) at 10 µM in our in-house selectivity panel of Tl^+-flux assays in HEK-293 cells stably expressing the target of interest. […] Some valuable SAR was noted as well. […] Reduction of inhibition at Maxi-K α1/β4 also followed. This SAR will be important to bear in mind for continued optimization within this series. […] Of particular note is the lack of significant hERG activity in this series, as activity versus that counter-target has been an issue with other SLACK inhibitors.
(§2) Stably transfected monoclonal HEK293 cell lines expressing Slick, Maxi-K α1/β3, Maxi-K α1/β4, CaV3.2, GIRK 1/2, KV2.1, KV7.2, NaV1.7, and TASK-1 were generated as previously described. Stably transfected monoclonal HEK293 cell lines expressing hERG were generated as previously described. CHO-K1 cells expressing human Slack and disease-associated human Slack mutations, G288S and A934T, were generated by transfecting a PiggyBac TRE mammalian expression vector (VectorBuilder, Chicago, IL, USA) containing KCNT1. FuGENE 6 (Promega, Madison, WI, USA) transfection reagent and protocol, together with Opti-MEM (Thermo Fisher Scientific, Walkham, MA, USA), were utilized.
(§3) The Tl^+ flux assays were conducted as previously described with modifications optimized for individual cell lines as described below. Following removal of cell culture media, cells were loaded with Tl^+-sensitive dye loading solution containing Thallos-AM (ION Biosciences, San Marcos, TX, USA), 1.25 mM Probenecid, and 0.3% Pluronic F-127 (MilliporeSigma, Burlington, MA, USA), in assay buffer comprised of Hanks Balanced Salt Solution (HBSS) (Thermo Fisher Scientific, Waltham, MA, USA) and 20 mM HEPES (Corning, Corning, NY, USA) at room temperature for one-hour. Dye loading solution was replaced with 20 μL/well of assay buffer prior to assaying. Cell plates were then loaded onto a Panoptic kinetic imaging plate reader (WaveFront Biosciences, Franklin, TN, USA). Data were acquired at 5 Hz (excitation 482 ± 35 nm, emission 536 ± 40 nm) for 10 s, at which time 20 μL/well of test compounds in assay buffer at 2-fold above the desired final concentration was added and allowed to incubate for 120 s. Next, 10 μL/well of Tl^+ stimulus buffer (129 mM Na gluconate, 1.2 mM CaSO4, 1 MgSO4, 1 mM Na2HPO4, 4.17 mM NaHCO3, 5.56 mM glucose, 2.5 mM Tl2SO4, and 10 mM HEPES pH 7.3) was added. Imaging was concluded after an additional 120 s.

In a further assay the target is T2, GIRK 1/2 (Homo sapiens, UniProt P48051+P48549).
T2 construct: expressed in transfected cells; host or cells: HEK293
T2 sequence (P48549 1-501): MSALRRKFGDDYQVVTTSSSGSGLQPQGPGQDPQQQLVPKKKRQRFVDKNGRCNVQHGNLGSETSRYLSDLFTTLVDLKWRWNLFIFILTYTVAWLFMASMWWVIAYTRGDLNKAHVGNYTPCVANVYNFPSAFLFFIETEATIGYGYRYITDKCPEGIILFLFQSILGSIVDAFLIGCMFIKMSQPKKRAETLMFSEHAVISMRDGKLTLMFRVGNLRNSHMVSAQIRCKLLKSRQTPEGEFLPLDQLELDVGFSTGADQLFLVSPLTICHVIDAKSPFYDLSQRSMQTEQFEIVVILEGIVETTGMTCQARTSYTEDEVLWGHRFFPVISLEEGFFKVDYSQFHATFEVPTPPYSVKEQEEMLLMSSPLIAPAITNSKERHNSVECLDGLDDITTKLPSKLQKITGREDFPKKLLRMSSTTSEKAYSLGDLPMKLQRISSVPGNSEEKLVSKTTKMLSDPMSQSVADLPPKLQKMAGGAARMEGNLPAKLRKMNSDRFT
T2 sequence (P48051 1-423): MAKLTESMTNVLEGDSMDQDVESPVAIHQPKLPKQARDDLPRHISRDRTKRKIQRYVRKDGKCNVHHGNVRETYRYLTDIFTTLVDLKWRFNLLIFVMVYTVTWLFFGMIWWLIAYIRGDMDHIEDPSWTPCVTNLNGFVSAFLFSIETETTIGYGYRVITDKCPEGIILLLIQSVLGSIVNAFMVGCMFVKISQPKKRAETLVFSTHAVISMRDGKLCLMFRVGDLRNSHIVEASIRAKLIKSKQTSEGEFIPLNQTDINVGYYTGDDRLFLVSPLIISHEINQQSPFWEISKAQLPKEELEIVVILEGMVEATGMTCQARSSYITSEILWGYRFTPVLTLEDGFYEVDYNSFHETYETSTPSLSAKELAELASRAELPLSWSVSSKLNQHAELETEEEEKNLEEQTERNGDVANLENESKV
The experiment in a line: Tl+-flux selectivity panel in HEK-293 cells: GIRK 1/2. Conditions: HEK293, 10 µM test compound, relative to control SCH23390, read-out: Percent Inhibition ± SEM. The format is cell-based. On the procedure:
as §1, §2, §3

One may read the inhibition as the percentage by which the read-out fell short of the control.

Molecules are shown by their SMILES.

T1 sequence (Q12791 whole entry): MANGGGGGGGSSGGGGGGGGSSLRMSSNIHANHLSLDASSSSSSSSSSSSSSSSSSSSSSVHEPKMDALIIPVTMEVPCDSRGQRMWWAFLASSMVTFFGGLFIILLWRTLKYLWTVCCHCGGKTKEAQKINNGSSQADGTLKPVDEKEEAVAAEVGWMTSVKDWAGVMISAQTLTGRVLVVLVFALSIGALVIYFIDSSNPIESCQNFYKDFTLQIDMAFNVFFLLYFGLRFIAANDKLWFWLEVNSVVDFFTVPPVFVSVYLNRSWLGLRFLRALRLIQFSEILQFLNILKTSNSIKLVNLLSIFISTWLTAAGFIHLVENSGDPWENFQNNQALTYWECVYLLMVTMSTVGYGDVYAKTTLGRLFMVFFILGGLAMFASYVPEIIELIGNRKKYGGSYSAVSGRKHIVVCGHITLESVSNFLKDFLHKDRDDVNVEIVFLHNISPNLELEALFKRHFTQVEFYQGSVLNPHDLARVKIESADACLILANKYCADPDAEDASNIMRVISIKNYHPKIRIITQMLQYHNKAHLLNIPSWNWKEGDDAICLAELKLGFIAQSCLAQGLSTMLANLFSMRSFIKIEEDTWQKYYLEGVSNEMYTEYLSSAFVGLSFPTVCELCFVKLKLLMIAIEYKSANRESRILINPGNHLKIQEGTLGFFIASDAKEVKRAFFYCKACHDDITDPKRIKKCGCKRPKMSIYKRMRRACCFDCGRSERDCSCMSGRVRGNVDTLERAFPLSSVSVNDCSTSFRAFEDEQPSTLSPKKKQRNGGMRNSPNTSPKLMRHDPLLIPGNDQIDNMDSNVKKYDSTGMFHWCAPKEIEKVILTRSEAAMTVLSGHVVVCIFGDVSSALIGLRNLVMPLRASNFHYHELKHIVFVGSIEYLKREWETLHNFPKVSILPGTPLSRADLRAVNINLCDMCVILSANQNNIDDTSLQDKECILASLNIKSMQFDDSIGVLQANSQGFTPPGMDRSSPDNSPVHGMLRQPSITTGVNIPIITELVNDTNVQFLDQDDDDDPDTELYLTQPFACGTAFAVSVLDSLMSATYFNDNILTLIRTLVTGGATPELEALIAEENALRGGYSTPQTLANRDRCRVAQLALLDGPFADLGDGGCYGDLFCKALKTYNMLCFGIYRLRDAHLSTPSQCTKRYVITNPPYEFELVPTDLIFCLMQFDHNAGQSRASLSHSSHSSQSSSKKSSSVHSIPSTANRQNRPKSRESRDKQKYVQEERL
T1 sequence (Q9NPA1 whole entry partner): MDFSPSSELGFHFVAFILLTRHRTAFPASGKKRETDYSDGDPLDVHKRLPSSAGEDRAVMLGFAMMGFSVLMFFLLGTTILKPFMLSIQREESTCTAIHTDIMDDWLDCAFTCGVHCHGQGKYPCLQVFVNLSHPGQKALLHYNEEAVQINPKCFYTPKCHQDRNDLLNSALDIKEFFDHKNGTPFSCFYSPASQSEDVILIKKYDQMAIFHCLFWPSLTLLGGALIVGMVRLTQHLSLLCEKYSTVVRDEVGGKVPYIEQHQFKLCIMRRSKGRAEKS

Turning to `COc1cccc(Cn2c(=O)c3c(nc(N(C)Cc4ccccc4)n3C)n(C)c2=O)c1` [Analog 32], the results for the inhibition at 10 µM on Maxi-K α1/β3 and on GIRK 1/2 were 79 ± 1.4% and 19 ± 1.7%, respectively.
As to `Cn1c(N(Cc2ccccc2)CC2CC2)nc2c1c(=O)n(Cc1ccccc1)c(=O)n2C` [Analog 71], the inhibition at 10 µM at Maxi-K α1/β3 came out at 17 ± 5.2%; on GIRK 1/2 it was 12 ± 0.5%.
The corresponding values for `CCCCN(Cc1ccccc1)c1nc2c(c(=O)n(Cc3ccccc3)c(=O)n2C)n1C` [Analog 70] are 34 ± 2.9% and 9.2 ± 1.4%.
The corresponding values for `CN(Cc1cccc(F)c1)c1nc2c(c(=O)n(Cc3ccccc3)c(=O)n2C)n1C` [Analog 48] are 63 ± 1.2% and 32 ± 3%.

Values taken from article PMC11173529, “Structure–Activity Relationship Studies in a Series of Xanthine Inhibitors of SLACK Potassium Channels” (Molecules, 2024).
